How the values were obtained:
[1] = target: T1, human histamine H3 receptor (Homo sapiens, UniProt Q9Y5N1); experiment: Calcium mobilization assay (FLIPR), inhibition of (R)-α-methylhistamine-stimulated Ca2+ flux in RAGE-H3 cells; assay type: cell-based; details: determined using FLIPR
T1 construct: expressed in transfected cells; host or cells: HT1080-Gqαi5 cells (human), pFG8-HH3 RAGE vector integrated; methotrexate-amplified clone RAGE-H3
Procedure: The human histamine H3 receptor was stably expressed in HT1080 cells containing the chimeric G-protein, Gq[…]i5 (Coward et al., Anal Biochem 1999; 270:242-8). HT1080-Gqαi5 cells were grown in alpha-modified MEM containing 10% fetal bovine serum and 7 μg/ml blasticidin at 37° C. in 5% CO2/95% atmosphere. Cells (4.8×10^9) were irradiated with 50 rads from a ^137Cs source and the pFG8-HH3 RAGE (Random Activation of Gene Expression; see Harrington et al., Nature Biotechnology. 2001; 19:440-45) vector was subsequently integrated into the cells via electroporation (250V, 600 μF, 50Ω). The RAGE vector pFG8-HH3 contained cDNA sequence coding for the first exon (83 amino acids) of human H3 receptor. After electroporation, cells were plated in T75 flasks and grown in alpha-modified MEM. The culture medium was replaced 48 hours after electroporation with alpha-modified MEM, 10% fetal bovine serum, 500 μg/ml hygromycin B and 3 μg/ml puromycin. Medium was replaced every four days during cell expansion. To identify RAGE activated cells expressing the H3 receptor, pools of approximately 10,000 colonies (5×10^7-1.5×10^8 cells total) were screened by PCR for the desired gene product (using primers specific to the RAGE vector and exon 2 of the H3 receptor). […] Positive 100 cells/well pools were identified by PCR, confirmed by sequencing, and subsequently subcloned to 0.8 cells/well. Once clones expressing the H3 receptor were identified by PCR analysis, assays (FLIPR or radioligand binding) were performed to confirm that the activated gene produced functional protein. The protein expression in the initial clones obtained from the RAGE library was increased by growth in the presence of methotrexate. Since the integrated RAGE vector contains the DHFR gene, such treatment selects for cells that have amplified the genetic locus containing the RAGE insert. Subclones obtained after methotrexate amplification were tested for functional activity in FLIPR assays to identify the clone that was most suitable for HTS. The final HT1080-Gqαi5 RAGE clone (RAGE-H3) expressing the human histamine H3 receptor was grown in alpha-modified MEM containing 10% fetal bovine serum, 3 μg/ml puromycin, 500 μg/ml hygromycin B, 3.2 μM methotrexate at 37° C. in 5% CO2/95% atmosphere.
RAGE-H3 or HT1080-mH3 cells were seeded in black 384-well plates and incubated overnight at 37° C. in a 5% CO2/95% atmosphere. After removing medium, cells were treated with CsCl Ringer's buffer (136 mM CsCl, 5.4 mM KCl, 5.5 mM D-Glucose, 20 mM Hepes, pH 7.4, 2.1 mM MgCl2, 1.2 mM CaCl2) containing the Calcium 3 dye (Molecular Device, CA) and probenecid (3.75 mM) for 60 minutes, according to manufacture's instruction. Compounds were diluted in CsCl Ringer's buffer containing 0.2% bovine serum albumin and 1.0% DMSO. The dose response of (R)-α-methylhistamine-stimulated Ca^2+ flux was measured on a Fluorometric Imaging Plate Reader (FLIPR, Molecular Devices, CA) and the concentration of (R)-α-methylhistamine to stimulate 75% of maximum response was used to test the inhibitory effect of compounds.
All data were analyzed by nonlinear least squares curve fitting using Prism 4.0 software. The KD and Bmax for [^125I]iodoproxyfan were derived from the equation RL=RtL/(KD+L), where RL is concentration of receptor-bound ligand at equilibrium, L is the free ligand concentration, and Rt is the total receptor concentration (i.e., Bmax). For competition binding experiments, IC50 values (the concentration of compound producing 50% inhibition of specific binding) and Hill Coefficients (nH) were derived from fitting the data to a 4-parameter logistic equation. Apparent Ki values were calculated using the Cheng-Prussof equation of Ki=IC50/(1+(L/KD)), where L is the ligand concentration. […]

H3 receptor [2] = target: T2, H3 receptor (Rattus norvegicus, UniProt Q9QYN8); details: rats; cited from earlier work
T2 construct: host or cells: living rats
T2 sequence (Q9QYN8 whole entry): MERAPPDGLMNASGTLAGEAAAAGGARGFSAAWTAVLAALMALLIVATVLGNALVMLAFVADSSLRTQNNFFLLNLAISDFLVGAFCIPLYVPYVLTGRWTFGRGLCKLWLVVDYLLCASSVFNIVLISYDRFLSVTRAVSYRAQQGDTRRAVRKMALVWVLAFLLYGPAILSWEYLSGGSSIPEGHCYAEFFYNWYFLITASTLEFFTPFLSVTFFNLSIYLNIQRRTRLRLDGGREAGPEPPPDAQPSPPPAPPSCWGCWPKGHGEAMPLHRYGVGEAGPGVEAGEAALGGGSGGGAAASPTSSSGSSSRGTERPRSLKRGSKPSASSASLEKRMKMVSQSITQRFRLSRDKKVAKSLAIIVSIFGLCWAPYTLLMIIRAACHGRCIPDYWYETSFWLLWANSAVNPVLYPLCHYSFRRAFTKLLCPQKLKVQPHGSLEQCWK

H3 receptor [3] = details: in vivo studies; cited from earlier work
[4] = cited from earlier work
H3 receptor [5] = details: cat, cited from earlier work

T1 sequence (Q9Y5N1 whole entry): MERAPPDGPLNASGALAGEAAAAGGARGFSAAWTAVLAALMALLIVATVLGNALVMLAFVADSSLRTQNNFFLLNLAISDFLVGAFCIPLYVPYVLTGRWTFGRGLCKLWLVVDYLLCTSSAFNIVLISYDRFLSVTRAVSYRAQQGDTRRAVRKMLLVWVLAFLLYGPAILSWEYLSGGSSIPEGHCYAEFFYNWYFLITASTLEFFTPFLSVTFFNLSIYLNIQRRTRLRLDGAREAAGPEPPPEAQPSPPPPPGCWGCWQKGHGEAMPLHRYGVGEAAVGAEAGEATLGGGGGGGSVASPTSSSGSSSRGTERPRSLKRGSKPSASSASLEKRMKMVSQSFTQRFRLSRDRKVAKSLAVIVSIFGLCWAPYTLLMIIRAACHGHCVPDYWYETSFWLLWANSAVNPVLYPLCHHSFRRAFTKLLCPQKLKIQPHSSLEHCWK

Row | SMILES | IC50 [1] | further results
1 | S=C(NC1CCCCC1)N1CCC(c2cnc[nH]2)CC1 [thioperamide] | – | slow-wave and REM sleep (H3 receptor [2]): decrease; wakefulness (H3 receptor [2]): increase wakefulness; synthesis and release of histamine (H3 receptor [3]): increase; durations of every convulsive phase ([4]; after electrically-induced convulsions): significantly and dose-dependently decrease; electroconvulsive threshold ([4]; in vivo): increase; wakefulness (H3 receptor [5]): enhanced wakefulness in a dose-dependent fashion
2 | COc1ccc2c(ccn2-c2ccc(OCCCN3CCCC3)cc2)c1 [Example 9, 5-Methoxy-1-[4-(3-pyrrolidin-1-ylpropoxy)phenyl]-1H-indole] | < 1000 nM | –
3 | Brc1ccc2c(ccn2-c2ccc(OCCCN3CCCC3)cc2)c1 [Example 7, 5-Bromo-1-[4-(3-pyrrolidin-1-ylpropoxy)phenyl]-1H-indole] | < 1000 nM | –
4 | COc1cc(-n2c(C)cc3ccccc32)ccc1OCCCN1CCCC1 [Example 14, 1-[3-Methoxy-4-(3-pyrrolidin-1-ylpropoxy)phenyl]-2-methyl-1H-indole] | < 1000 nM | –
5 | C[C@@H](N)Cc1cnc[nH]1 [RAMHA] | – | deep slow wave sleep (H3 receptor [5]; oral administration): significant increase
6 | Cc1ccc2c(ccn2-c2ccc(OCCCN3CCCC3)cc2)c1 [Example 6, 5-Methyl-1-[4-(3-pyrrolidin-1-ylpropoxy)phenyl]-1H-indole] | < 1000 nM | –
7 | Clc1ccc2c(ccn2-c2ccc(OCCCN3CCCC3)cc2)c1 [Example 10, 5-Chloro-1-[4-(3-pyrrolidin-1-ylpropoxy)phenyl]-1H-indole] | < 1000 nM | –

Second part, led by results:

Row | IC50 [1] | SMILES | further results
8 | < 100 nM | COc1ccc2c(c1)cc(C)n2-c1ccc(C#CCCN2CCCC2)cc1 [Example 17, 5-Methoxy-2-methyl-1-[4-(4-pyrrolidin-1-ylbut-1-ynyl)phenyl]-1H-indole] | –
9 | < 100 nM | c1ccc2c(c1)ccn2-c1ccc(OCCCN2CCCC2)cc1 [Example 4, 1-[4-(3-Pyrrolidin-1-ylpropoxy)phenyl]-1H-indole] | –
10 | < 1000 nM | Cc1cc2ccccc2n1-c1ccc(OCCCN2CCCC2)c(Cl)c1 [Example 15, 1-[3-Chloro-4-(3-pyrrolidin-1-ylpropoxy)phenyl]-2-methyl-1H-indole] | –
11 | < 1000 nM | Clc1cccc2c1ccn2-c1ccc(OCCCN2CCCC2)cc1 [Example 8, 4-Chloro-1-[4-(3-pyrrolidin-1-ylpropoxy)phenyl]-1H-indole] | –
12 | < 100 nM | COc1ccc2c(c1)cc(C)n2-c1ccc(OCCCN2CCCC2)cc1 [Example 5, 5-Methoxy-2-methyl-1-[4-(3-pyrrolidin-1-ylpropoxy)phenyl]-1H-indole] | –
13 | < 100 nM | c1ccc2c(c1)cc(C1CC1)n2-c1ccc(OCCCN2CCCC2)cc1 [Example 37, 2-Cyclopropyl-1-[4-(3-pyrrolidin-1-ylpropoxy)phenyl]-1H-indole] | –

Source: US8129424B2, “Indole derivatives as histamine 3 receptor inhibitors for the treatment of cognitive and sleep disorders, obesity and other CNS disorders” (Athersys, Inc., priority 2005, dated 2012)
